Counter-ions that a name gives are not always drawn.
What was measured:
[1] = biological target: T1, human dopamine D2S receptor (Homo sapiens, UniProt P14416); assay: Radioligand competition binding assay in cloned human dopamine D2S receptor; conditions: test concentration 100 nM, 0.3 nM [3H]spiperone, transfected CHO cell membranes; read-out: percent inhibition of the control radioligand specific binding
T1 construct: expressed in transfected cells; host or cells: CHO cells, transfected, cell membrane homogenates
Method: In this assay, the binding affinity of test compounds for the human dopamine D2S receptor in transfected CHO cells is determined using a radioligand binding assay (Grady et al., Proc. Natl. Acad. Sci. USA 86:9762 (1989). Cell membrane homogenates (5-10 μg protein) were incubated for 60 minutes at 22° C. with 0.3 nM [^3H]spiperone in the absence or presence of a test compound in a buffer containing 50 mM Tris-HCl (pH 7.4), 120 mM NaCl, 5 mM KCl, 5 mM MgCl2 and 1 mM EDTA. The test compound was used at a test concentration of 100 nM. Nonspecific binding was determined in the presence of 10 μM (+)-butaclamol. Following incubation, the samples were filtered rapidly under vacuum through glass fiber filters (GF/B, Packard) presoaked with 0.3% polyethyleneimine and rinsed several times with ice-cold 50 mM Tris-HCl using a 96-sample cell harvester (Unifilter, Packard). The filters were dried, and then counted for radioactivity in a scintillation counter (Topcount, Packard) using a scintillation cocktail (Microscint 0, Packard). The results were expressed as a percent inhibition of the control radioligand specific binding.

[2] = biological target: T2, hM2 receptor (Homo sapiens, UniProt P08172); assay: Blockade of agonist-mediated [35S]GTPγS binding, CHO-K1 membranes expressing hM2; assay type: biochemical; conditions: CHO-K1 cells expressing the hM2 receptor; read-out: Ki value for blockade of oxotremorine-stimulated [35S]GTPγS-binding
T2 construct: expressed in transfected cells
T2 sequence (P08172 1-466): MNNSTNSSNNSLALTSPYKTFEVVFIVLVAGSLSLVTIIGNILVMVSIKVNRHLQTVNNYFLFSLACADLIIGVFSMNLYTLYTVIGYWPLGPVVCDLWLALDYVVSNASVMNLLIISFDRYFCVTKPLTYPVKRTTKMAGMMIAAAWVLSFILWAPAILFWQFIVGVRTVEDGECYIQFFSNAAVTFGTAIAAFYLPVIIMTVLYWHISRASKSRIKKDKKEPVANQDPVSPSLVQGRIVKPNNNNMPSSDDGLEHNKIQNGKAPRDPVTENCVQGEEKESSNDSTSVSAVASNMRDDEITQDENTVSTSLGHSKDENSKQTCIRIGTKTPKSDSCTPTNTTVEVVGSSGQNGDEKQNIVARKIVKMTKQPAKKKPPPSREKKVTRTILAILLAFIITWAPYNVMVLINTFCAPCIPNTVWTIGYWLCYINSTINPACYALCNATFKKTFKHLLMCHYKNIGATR
Method: In a second functional assay, the functional potency of test compounds is determined by measuring the ability of the compounds to block oxotremorine-stimulated [^35S]GTPγS binding in CHO-K1 cells expressing the hM2 receptor.
At the time of use, frozen membranes were thawed and then diluted in assay buffer with a final target tissue concentration of 5-10 μg protein per well. The membranes were briefly homogenized using a Polytron PT-2100 tissue disrupter and then added to the assay plates.
The EC90 value (effective concentration for 90% maximal response) for stimulation of [^35S]GTPγS binding by the agonist oxotremorine was determined in each experiment.
To determine the ability of a test compound to inhibit oxotremorine-stimulated [^35S]GTPγS binding, the following was added to each well of 96 well plates: 25 μL of assay buffer with [^35S]GTPγS (0.4 nM), 25 μL of oxotremorine (EC90) and GDP (3 uM), 25 μL of diluted test compound and 25 μL CHO cell membranes expressing the hM2 receptor. […] Microscint-20 scintillation liquid (50 μL) was added to each well, and each plate was sealed and radioactivity counted on a Topcounter (PerkinElmer). Data were analyzed by nonlinear regression analysis with the GraphPad Prism Software package (GraphPad Software, Inc., San Diego, Calif.) using the non-linear regression, one-site competition equation. […]

T1 sequence (P14416 1-414 isoform P14416-2): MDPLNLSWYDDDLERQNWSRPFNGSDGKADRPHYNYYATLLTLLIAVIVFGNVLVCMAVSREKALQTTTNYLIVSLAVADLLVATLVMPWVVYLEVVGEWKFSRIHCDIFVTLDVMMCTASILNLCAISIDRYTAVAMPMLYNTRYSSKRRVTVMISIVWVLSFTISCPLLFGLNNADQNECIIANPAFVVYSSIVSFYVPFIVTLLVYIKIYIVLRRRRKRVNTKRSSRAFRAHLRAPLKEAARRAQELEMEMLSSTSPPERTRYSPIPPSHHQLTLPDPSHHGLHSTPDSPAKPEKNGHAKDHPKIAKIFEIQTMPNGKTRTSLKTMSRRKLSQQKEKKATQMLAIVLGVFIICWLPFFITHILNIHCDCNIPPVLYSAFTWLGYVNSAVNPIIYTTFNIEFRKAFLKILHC

inhibition at 0.1 µM [1] | Ki [2] | SMILES
> 30% |  | O=C(CCN1CCC(OC(=O)Nc2ccccc2-c2ccccc2)CC1)Nc1ccc(CNCCc2ccc(O)c3[nH]c(=O)sc23)cc1 [Example 2, Biphenyl-2-ylcarbamic Acid 1-[2-(4-{[2-(4-Hydroxy-2-oxo-2,3-dihydrobenzothiazol-7-yl)ethylamino]methyl}phenylcarbamoyl)ethyl]-piperidin-4-yl Ester Bis(trifluoroacetate) Salt]
> 75% | < 10 nM | O=C(Nc1ccccc1-c1ccccc1)OC1CCN(CCCCCCCCCNCCc2ccc(O)c3[nH]c(=O)sc23)CC1 [Example 1, Biphenyl-2-ylcarbamic Acid 1-{9-[2-(4-Hydroxy-2-oxo-2,3-dihydrobenzothiazol-7-yl)-ethylamino]nonyl}piperidin-4-yl Ester Bis(trifluoroacetate) Salt]

Source: patent US7838535B2, “Compounds having β2 adrenergic receptor agonist and muscarinic receptor antagonist activity” (Theravance, Inc., priority 2003, dated 2010)
